Patent US9175305B2, “Mutant hydroxyphenylpyruvate dioxygenase polypeptides and methods of use” (Syngenta Participations AG, priority 2009, dated 2015)
Several values for one entry are separate records, joined by “and”; a condition that tells them apart may be missing. Equal entries are not always repeated. Where two headings read alike, the source gives them in different places.

Assays:
[1] = tested on: Jack w/t; assay: herbicide spray test on soybean; type: in vivo; details: V2 growth stage, 14 DAT, average of n=7
Protocol: (§1) Each data point represents the average damage score from n=7 replicates.
(§2) Plants were in 4×4×4 inch plastic pots and grown under a 15/9 hour light regime (daylight supplemented by artificial light in greenhouses) at a minimum night-time temperature of 18° C. and maximum daytime temperature of 27° C. Soil was regular VBRC mix (1:1 mixture of Vero field soil and Fafard Mix II) where Vero field soil is 98% sand and 2% clay. […] Spray volume was 150 L/ha and the damage scores reflect assessments at 14 DAT.

[2] = molecular target: HPPD SEQ ID NO:24 (Avena sativa, UniProt A0ACD5V6K6, DEL109-109/L359M); assay: biochemical; type: binding; details: for koff: read-out: koff (k1); for kon: read-out: kon (k2)
HPPD SEQ ID NO:24, sequence (A0ACD5V6K6 entry or part of it DEL109-109/L359M): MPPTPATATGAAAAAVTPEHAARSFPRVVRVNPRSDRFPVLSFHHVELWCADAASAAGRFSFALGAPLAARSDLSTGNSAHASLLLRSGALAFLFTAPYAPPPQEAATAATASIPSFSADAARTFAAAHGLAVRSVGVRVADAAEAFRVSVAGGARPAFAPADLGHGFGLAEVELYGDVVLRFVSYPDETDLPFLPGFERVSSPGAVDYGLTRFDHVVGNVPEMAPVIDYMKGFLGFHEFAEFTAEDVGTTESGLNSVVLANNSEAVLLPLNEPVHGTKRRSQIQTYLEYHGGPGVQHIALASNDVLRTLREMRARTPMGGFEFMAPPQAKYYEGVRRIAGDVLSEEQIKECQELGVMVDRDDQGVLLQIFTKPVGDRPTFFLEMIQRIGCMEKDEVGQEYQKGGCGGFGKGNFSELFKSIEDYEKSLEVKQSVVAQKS
Protocol: (§3) On rates (governed by an association rate constant, kon) for the formation of the enzyme: inhibitor complexes, EI and off rates (governed by a dissociation rate constant, koff) were determined by methods known in the art and essentially as described in Hawkes et al. (2001) Proc. Bright. Crop. Prot. Conf. Weeds, 2:563-568 and in PCT Patent App. Pub. No. WO 02/46387).
(§4) For example, on rates were measured by, at zero time, adding ˜60 pmoles HPPD to 50 mM BisTrisPropane buffer at pH7.0 and at 25° C. containing 25 mM Na ascorbate, 4 μg/ml bovine catalase (Sigma, St. Louis, Mo.) and an excess (˜300 pmoles) of ^14C inhibitor in a total assay volume of 425 μl and, at various time points (0-180 s), quenching the radiolabel binding reaction by addition and rapid mixing of 100 μl ‘cold’ 1 mM structure A. Protein samples quenched at different times were then exchanged into 50 mM BisTrisPropane buffer at pH 7.0 containing 0.1M KCl by rapid chromatography down a NAP5 G25 Sephadex column (GE Healthcare Ltd, Buckinghamshire UK) and the amount of ^14C bound to protein fractions quantified in Optiphase scintillant using a Tri-Carb 2900TR scintillation counter (Perkin Elmer, Wellesley, Mass.). The data were fit according to the scheme below in order to derive the value of the apparent second order rate constant, k2, governing the association rate of enzyme and radiolabelled inhibitor. A range of enzyme and inhibitor concentrations were used. […] Further example methods are described in PCT Patent App. Pub. No. WO 02/46387.
(§5) Off rates (k1 in the scheme below) were derived from exchange rate studies where either the test inhibitor, I, or its exchange partner, J were radiolabelled and the data fit according to the scheme below. As noted in Hawkes et al. (2001) Proc. Bright. Crop. Prot. Conf.
(§6) After 30 minutes the exchange reaction was initiated with addition of 100 μl 1 mM ‘cold’ structure A with thorough mixing, and, immediately, 150 μl were withdrawn and loaded onto a NAP5 column, the protein exchanged into 50 mM BisTrisPropane buffer at pH 7.0 containing 0.1M KCl by rapid (<2 min) chromatography down a NAP5 G25 Sephadex column (GE Healthcare Ltd, Buckinghamshire UK) and the amount of ^14C bound to protein measured by Optiphase scintillant using a Tri-Carb 2900TR scintillation counter (Perkin Elmer, Wellesley, Mass.). Further aliquots were removed and measured in the same way at various times over minutes or hours as required in order to determine the exchange kinetics.
(§7) After 30 minutes the reaction vessel was transferred to ice. After a further 10 minutes at ice temperature the exchange reaction was initiated by addition of 100 μl 1 mM Structure A, with thorough mixing, and 150 μl was withdrawn and loaded onto a NAP5 column in a cold room at ˜5-8° C. in order to quantify the amount of radiolabel remaining bound to the protein at various time from the start of exchange at ice temperature.
(§8) Off rates (k1) of HPPD inhibitors that are not available radiolabelled or that present other measurement problems (for example high levels of background non-specific protein-binding which can be measured as radiolabel binding that persists in the presence of high concentrations of ‘cold’ inhibitor) may be measured indirectly. […] Exemplary methods are also described in PCT Patent App. Pub. No. WO 02/46387.

[3] = tested on: soybean event S3 (vector 17147) expressing SEQ ID NO:24; assay: herbicide spray test on soybean events; type: in vivo; details: event S3/SEQ#24, V2 growth stage, 14 DAT, average of n=7
Excerpt: as §1
(§9) These events were used to compare the performance of five 17147 events. Four of these, SF, S8, S7 and S3 had not been preselected for tolerance level (other than to confirm resistance, non-chimerical nature and the presence of the gene) while the remaining event, T0, had been preselected as the most resistant out of five 17147 events in a preliminary field test.
as §2

[4] = tested on: soybean event 2 (vector 15764) expressing SEQ ID NO:14; assay: herbicide spray test on soybean events; type: in vivo; details: event 2/SEQ#14, V2 growth stage, 14 DAT, average of n=7
Excerpt: as §1, §9, §2

[5] = tested on: soybean event SF (vector 17147) expressing SEQ ID NO:24; assay: herbicide spray test on soybean events; type: in vivo; details: event SF/SEQ#24, V2 growth stage, 14 DAT, average of n=7
Excerpt: as §1, §9, §2

[6] = tested on: soybean event 1 (vector 15764) expressing SEQ ID NO:14; assay: herbicide spray test on soybean events; type: in vivo; details: event 1/SEQ#14, V2 growth stage, 14 DAT, average of n=7
Excerpt: as §1, §9, §2

[7] = tested on: soybean event T0 (vector 17147) expressing SEQ ID NO:24; assay: herbicide spray test on soybean events; type: in vivo; details: event T0/SEQ#24, V2 growth stage, 14 DAT, average of n=7
Excerpt: as §1, §9, §2

[8] = tested on: soybean event S8 (vector 17147) expressing SEQ ID NO:24; assay: herbicide spray test on soybean events; type: in vivo; details: event S8/SEQ#24, V2 growth stage, 14 DAT, average of n=7
Excerpt: as §1, §9, §2

[9] = tested on: soybean event S7 (vector 17147) expressing SEQ ID NO:24; assay: herbicide spray test on soybean events; type: in vivo; details: event S7/SEQ#24, V2 growth stage, 14 DAT, average of n=7
Excerpt: as §1, §9, §2

[10] = molecular target: HPPD SEQ ID NO:23 (Avena sativa, UniProt A0ACD5V6K6, A242W/DEL109-109); assay: biochemical; type: binding; details: for koff: read-out: koff (k1)
HPPD SEQ ID NO:23, sequence (A0ACD5V6K6 entry or part of it DEL109-109/A242W): as the sequence (A0ACD5V6K6 entry or part of it DEL109-109/L359M) above, with A241W, M358L counted along it
Protocol: as §3, §4, §5, §6, §7, §8

[11] = molecular target: HPPD SEQ ID NO:14 (Avena sativa, UniProt A0ACD5V6K6, DEL109-109); assay: biochemical; type: binding; details: for Kd/Km ratio: HPPD SEQ ID NO:14
HPPD SEQ ID NO:14, sequence (A0ACD5V6K6 entry or part of it DEL109-109): as the sequence (A0ACD5V6K6 entry or part of it DEL109-109/L359M) above, with M358L counted along it
Protocol: as §3, §4, §5, §6, §7, §8

[12] = molecular target: HPPD SEQ ID NO:22 (Avena sativa, UniProt A0ACD5V6K6, DEL109-109/L256M); assay: biochemical; type: binding; details: for koff: read-out: koff (k1)
HPPD SEQ ID NO:22, sequence (A0ACD5V6K6 entry or part of it DEL109-109/L256M): as the sequence (A0ACD5V6K6 entry or part of it DEL109-109/L359M) above, with L255M, M358L counted along it
Protocol: as §3, §4, §5, §6, §7, §8

[13] = molecular target: HPPD SEQ ID NO:15 (Avena sativa, UniProt A0ACD5V6K6, DEL109-109/Q298A); assay: biochemical; type: binding; details: for koff: read-out: koff (k1)
HPPD SEQ ID NO:15, sequence (A0ACD5V6K6 entry or part of it DEL109-109/Q298A): as the sequence (A0ACD5V6K6 entry or part of it DEL109-109/L359M) above, with Q297A, M358L counted along it
Protocol: as §3, §4, §5, §6, §7, §8

[14] = molecular target: HPPD SEQ ID NO:18 (Avena sativa, UniProt A0ACD5V6K6, DEL109-109/I285T); assay: biochemical; type: binding; details: for koff: read-out: koff (k1)
HPPD SEQ ID NO:18, sequence (A0ACD5V6K6 entry or part of it DEL109-109/I285T): as the sequence (A0ACD5V6K6 entry or part of it DEL109-109/L359M) above, with I284T, M358L counted along it
Protocol: as §3, §4, §5, §6, §7, §8

[15] = molecular target: HPPD SEQ ID NO:21 (Avena sativa, UniProt A0ACD5V6K6, DEL109-109/I285V); assay: biochemical; type: binding; details: for koff: read-out: koff (k1)
HPPD SEQ ID NO:21, sequence (A0ACD5V6K6 entry or part of it DEL109-109/I285V): as the sequence (A0ACD5V6K6 entry or part of it DEL109-109/L359M) above, with I284V, M358L counted along it
Protocol: as §3, §4, §5, §6, §7, §8

[16] = 25° C., direct, radiochemical method, average and individual experiments, read-out: Off rate k1
[17] = 25° C., direct, radiochemical method, average and individual experiments, read-out: On rate k2
[18] = Kd, HPPD variant SEQ ID# 14, 25° C.
[19] = Kd, estimated from on and off rates, 25° C.

CS(=O)(=O)c1cc(C(F)(F)F)ccc1C(=O)c1cnoc1C1CC1 [IFT, isoxaflutole]
% dam. ([1]; IFT 420 g/ha): 96.1% | SEQ ID NO:24 superior to SEQ ID NO:14 (in vitro, in particular off rate data) [2]: 2.3 fold | % dam. ([3]; IFT 420 g/ha): 30% | % dam. ([4]; IFT 420 g/ha): 42.5% | % dam. ([5]; IFT 420 g/ha): 40% | % dam. ([6]; IFT 420 g/ha): 26.4% | % dam. ([7]; IFT 420 g/ha): 19.3% | % dam. ([8]; IFT 420 g/ha): 31.3% | % dam. ([9]; IFT 420 g/ha): 20.7%

CCOc1c(S(C)(=O)=O)ccc(C(=O)C2C(=O)CC(C)CC2=O)c1Cl (centres unmarked) [Structure A]
Kd [10]: 0.33 nM | koff [10]: 2.83e-05 s⁻¹ | kon ([10]; read-out: kon (k2)): 85000 M⁻¹ s⁻¹ | koff [11, 16]: 1.67e-05 s⁻¹ | kon [11, 17]: 85000 M⁻¹ s⁻¹ | Kd/Km ratio [11]: 0.000036 | Kd [11, 18]: 0.2 nM | Kd [11, 19]: 0.196 nM | koff ([11]; read-out: koff (k1)): 1.67e-05 s⁻¹ | kon ([11]; read-out: kon (k2)): 85000 M⁻¹ s⁻¹ | Kd [12]: 0.13 nM | koff [12]: 1.08e-05 s⁻¹ | kon ([12]; read-out: kon (k2)): 85000 M⁻¹ s⁻¹ | Kd [13]: 0.95 nM | koff [13]: 3.33e-05 s⁻¹ | kon ([13]; read-out: kon (k2)): 35000 M⁻¹ s⁻¹ | Kd [14]: 0.4 nM | koff [14]: 1.67e-05 s⁻¹ | kon ([14]; read-out: kon (k2)): 42000 M⁻¹ s⁻¹ | Kd [15]: 0.2 nM | koff [15]: 1.67e-05 s⁻¹ | kon ([15]; read-out: kon (k2)): 85000 M⁻¹ s⁻¹ | Kd [2]: 0.27 nM | koff [2]: 2.3e-05 s⁻¹ | kon [2]: 85000 M⁻¹ s⁻¹

CS(=O)(=O)c1cc(C(F)(F)F)ccc1C(=O)C(C#N)C(=O)C1CC1 (centres unmarked) [Structure D]
koff [10]: 2.37e-05 s⁻¹ | Off rate k1 ([11]; 25° C., direct, radiochemical method, average and individual experiments): 4.17e-05 s⁻¹ and 3.75e-05 s⁻¹ | koff [11, 16]: 3.96e-05 s⁻¹ | kon [11, 17]: 32000 M⁻¹ s⁻¹ | kon ([11]; 25° C., enzyme activity-based method, read-out: On rate, activity-based method): 32000 M⁻¹ s⁻¹ | Kd/Km ratio [11]: 0.00023 | Kd [11, 18]: 1.2 nM | Kd [11, 19]: 1.23 nM | koff ([11]; read-out: koff (k1)): 3.96e-05 s⁻¹ | kon ([11]; read-out: kon (k2)): 32000 M⁻¹ s⁻¹ | koff [12]: 2.37e-05 s⁻¹ | koff [13]: 2.37e-05 s⁻¹ | koff [14]: 3.96e-05 s⁻¹ | koff [15]: 3.96e-05 s⁻¹ | Kd [2]: 2.9 nM | koff [2]: 9.18e-05 s⁻¹ | kon [2]: 32000 M⁻¹ s⁻¹

CS(=O)(=O)c1ccc(C(=O)C2C(=O)CCCC2=O)c(Cl)c1COCC(F)(F)F [E, tembotrione]
% dam. ([1]; E 368 g/ha): 84.3% | Kd [11]: 0.321 nM | Off rate k1 ([11]; 25° C., indirect radiochemical method, average and individual experiments): 5.5e-05 s⁻¹ and 2.85e-05 s⁻¹ | Kd/Km ratio [11]: 0.000059 | koff ([11]; read-out: Off rate k1, 25° C., indirect radiochemical method, average and individual experiments): 4.17e-05 s⁻¹ | kon ([11]; read-out: On rate k2): 130000 M⁻¹ s⁻¹ | SEQ ID NO:24 superior to SEQ ID NO:14 (in vitro, in particular off rate data) ([2]; relative to SEQ ID NO:14): neutral | % dam. ([3]; E 368 g/ha): 51.4% | % dam. ([4]; E 368 g/ha): 52.1% | % dam. ([5]; E 368 g/ha): 97.1% | % dam. ([6]; E 368 g/ha): 36.4% | % dam. ([7]; E 368 g/ha): 39.3% | % dam. ([8]; E 368 g/ha): 80% | % dam. ([9]; E 368 g/ha): 41.4%
